Source: patent US8754094B2, “Methods for heat shock protein dependent cancer treatment” (The Research Foundation of State University of New York, priority 2007, dated 2014)
Residues, ends and D or L forms follow the SMILES beside them. *: point of attachment. Cbz = O=C(OCc1ccccc1)*

Columns and labels:
[1] = MTS survival assay, endothelial progenitor cells (EPCs) from MM patients; assay type: cell-based, human; conditions: human, EPCs of MM patients, FIG. 36C, read-out: reduction of viability of EPCs
Description: (§1) For endothelial progenitor cells (EPC) outgrowth, bone marrow were further separated using Ficoll-Hypaque (Sigma Chemicals, St Louis, Mo.) density-gradient centrifugation and mononuclear cells were cultured (7×10^6 cells/well) in laminin-coated, 6-well plates (Becton Dickinson Labware, Bedford, Mass.) in EndoCult Basal Medium supplemented with 20% fetal bovine serum (StemCell Technologies, Vancouver, Canada) and antibiotics (100 U/ml penicillin G, 100 μg/ml streptomycin) until confluent. […] Outgrown EPCs were identified by the expression of endothelial and progenitor cell surface markers, including von Willebrand factor (a blood glycoprotein involved in coagulation), vascular endothelial-cadherin (where cadherins are a class of transmembrane proteins), vascular endothelial growth factor receptor-2, CD34, and CD133, as well as the absence of the MM marker CD38, determined by immunocytochemistry and flow cytometry. EPCs were passaged when they were 60-70% confluent by trypsin-ethylenediaminetetraacetic acid (EDTA) treatment (Invitrogen, Carlsbad, Calif.) onto 96-well culture plates (BD Biosciences, San Jose, Calif.). […]

[2] = tested on: EPCs from multiple myeloma patients; assay: as above; assay type: cell-based, human; conditions: FIG. 36C
Description: as §1

| SMILES | cytotoxicity [1] | reduction of viability of EPCs [2] |
| --- | --- | --- |
| CC(C)C[C@@H](C=O)NC(=O)[C@H](CC(C)C)NC(=O)[C@H](CC(C)C)NC(=O)OCc1ccccc1 [MG-132, reference compound] (Cbz-Leu-Leu-Leu-aldehyde) | 16 ± 17% |  |
| CCCCCCN(C(=O)CCCCCN1C(=O)NC(c2ccc(-c3ccccc3)cc2)C(C(=O)OCc2ccccc2)=C1C)C(C(=O)NCCCC)c1ccc(OCC(=O)OC)c(C(=O)OC)c1 (centres unmarked) [MAL3-101] |  | 10±14% |
